Laboratory results reported in patent publication US12285490B2, “ASH1L degraders and methods of treatment therewith” (The Regents of the University of Michigan, priority 2017, dated 2025).

Legend:
ASH1L = target: T1, ASH1L (Homo sapiens, UniProt Q9NR48); assay: Western blot of ASH1L degradation in HeLa cells; type: cell-based
T1 construct: endogenous in cells; host or cells: HeLa cells
Method: The 2.5×10^5 HeLa cells were treated with compounds for 24 h followed by the lysis in the RIPA buffer. The protein samples were loaded and run in the 3-8% Tris-acetate gel. After transferring proteins to the PVDF membrane, 5% bovine serum albumin solution was used for blocking for 2 h at room temperature. The membranes were incubated with the ASH1L-specific antibody (Bethyl A301-749A) at 4° C. overnight and subsequently with the anti-rabbit secondary antibody (Cell signaling technology, 7074S). The blots were detected by an ECL detection system (Amersham, RPN2236).

MV4:11 = assay: Cell viability assay (MTT) in MV4:11 cells; type: cell-based; details: Homo sapiens, 168 h; MV4:11, after 7 days of treatment
Method: (§1) Human leukemia cells were plated at 1×10^5 cells/ml in 24-well plates, treated with 0.25% DMSO or compounds and cultured at 37° C. for 7-14 days. Every four days, the volume corresponding to 1×10^5 cells of DMSO-treated cells was spun down and resuspended in fresh media with fresh compound. At day 0 and each four day interval, 100 μl aliquots of the cell suspension were transferred to 96-well plates in quadruplicates. The quadruplicate samples were incubated for 3-4 days at 37° C., and then an MTI cell proliferation assay kit (Roche) was used to measure viable cells. Absorbance was read at 570 nm using a PHERAstar (BMG) microplate reader.

MOLM13 = assay: Cell viability assay (MTT) in MOLM13 cells; type: cell-based; details: Homo sapiens, MOLM-13, 168 h; MOLM13, after 7 days of treatment
Method: as §1

KOPN8 = assay: Cell viability assay (MTT) in KOPN8 cells; type: cell-based; details: Homo sapiens, KOPN-8, 168 h; KOPN8, after 7 days of treatment
Method: as §1

K562 control cell line = assay: Cell viability assay (MTT) in K562 control cell line; type: cell-based; details: Homo sapiens, 168 h, after 7 days of treatment
Method: as §1

[1] = test system: acute leukemia cell lines; assay: Cell viability / proliferation in various acute leukemia cell lines; type: cell-based, human; details: after 7 days of treatment
Method: as §1

[2] = test system: MLL fusion protein target genes in MOLM13 leukemia cell line; assay: Quantitative RT-PCR gene expression in MOLM13 cells; type: cell-based, human; details: after 6 days of treatment at 150 nM
Method: (§2) Total RNA was extracted from cells using the RNeasy mini kit (QIAGEN), and then 100-2000 ng of total RNA was reverse transcribed using the High Capacity cDNA Reverse Transcription Kit (Applied Biosystems) according to the manufacturer's protocol. Real-time PCR was performed using a CFX96 Real-Time PCR Detection System (Biorad). TaqMan Gene Expression Master Mix and TaqMan Gene Expression Assays were purchased from Thermo Fisher. Relative quantification of each gene transcript was carried out using the ΔΔCt method as described in the Biorad Real-Time PCR Applications Guide.

[3] = test system: MV4:11 xenotransplantation model; assay: In vivo efficacy in MV4:11 xenotransplantation model; details: MV4:11 xenotransplantation model in mice, 25 mg/kg, i.p., q.d., 17 days of treatment
Text: Exemplary compounds disclosed herein, were used for in vivo studies in mice. Immunocompromised 8-10 week-old female NSG mice were used for in vivo efficacy studies in accordance with IACUC guidelines. Luciferase expressing human MV4:11 leukemia cells (MV4:11-luc) were engrafted intravenously via tail vein injection (1×10^7 cells/animal). Five days after transplantation mice were randomly assigned to a vehicle control or a compound treatment group (6-7 animals per group). Animals in each of the treatment groups were administered vehicle or compound A of the present disclosure by intraperitoneal (i.p.) injection. Treatment was continued for 17 days. Body weight was measured daily, while mean luminescence signal was measured in all mice at days 10 and 17 after initiating the treatment. […]

[4] = test system: acute leukemia cell lines; assay: Differentiation of leukemia cells (Cytospin/Wright-Giemsa staining); type: cell-based, human; details: after 7 days of treatment
Method: 1×10^5 of leukemia cells treated with compounds or DMSO were harvested and placed in a Shandon EZ Single Cytofunnel (Thermo Fisher). Samples were centrifuged at 600 rpm for 5 min. The slides were air dried before staining with a Hema-3 kit (Thermo Fisher).

[5] = test system: MLL fusion target genes in MV4:11 MLL leukemia cell line; assay: Quantitative RT-PCR gene expression in MV4:11 cells; type: cell-based, human; details: after 7 days of treatment
Method: as §2

Row | Structure (SMILES) | Degradation of ASH1L (ASH1L; HeLa cells, after 24 h of treatment, FIG. 4 Panel A) | GI50 (MV4:11) | GI50 (MOLM13) | GI50 (KOPN8) | GI50 (K562 control cell line) | Cell proliferation / viability [1] | Expression of MLL fusion protein target genes [2] | Leukemia progression in vivo (bioluminescence signal, hCD45+ cells) [3] | Degradation of ASH1L (ASH1L; FIG. 1, Western blot) | Differentiation [4] | Expression of MLL fusion target genes [5]
1 | NC(=S)c1cccc(-c2cn(C3CCC(F)(F)CC3)c3cc(NC(=O)CCCCCCCCNC(=O)COc4cccc5c4C(=O)N(C4CCC(=O)NC4=O)C5=O)ccc23)c1 (stereo not drawn) [Compound 24, N-(3-(3-carbamothioylphenyl)-1-(4,4-difluorocyclohexyl)-1H-indol-6-yl)-9-(2-((2-(2,6-dioxopiperidin-3-yl)-1,3-dioxoisoindolin-4-yl)oxy)acetamido)nonanamide] | induces degradation of ASH1L | 62 nM | 52 nM | 103 nM | > 6 µM | inhibits viability | downregulates the expression of MLL fusion protein target genes | blocks leukemia progression | – | – | –
2 | NC(=S)c1cccc(-c2cn(CC(CF)CF)c3cc(NC(=O)CCOCCOCCOCCOc4cccc5c4C(=O)N(C4CCC(=O)NC4=O)C5=O)ccc23)c1 (stereo not drawn) [Compound 1, N-(3-(3-carbamothioylphenyl)-1-(3-fluoro-2-(fluoromethyl)propyl)-1H-indol-6-yl)-3-(2-(2-(2-((2-(2,6-dioxopiperidin-3-yl)-1,3-dioxoisoindolin-4-yl)oxy)ethoxy)ethoxy)ethoxy)propanamide] | – | – | – | – | – | selectively blocks proliferation | – | – | Degradation of Ash1L induced | induces differentiation | downregulates expression of MLL fusion target genes
